Results published in article PMC9271048, “Probing strigolactone perception mechanisms with rationally designed small-molecule agonists stimulating germination of root parasitic weeds” (Nature Communications, 2022).

What was measured:
AtD14-AtMAX2 interaction = biological target: T1, AtD14-AtMAX2 interaction (Arabidopsis thaliana, UniProt Q9SQR3); assay: Yeast two-hybrid assay AtD14-AtMAX2; format: cell-based; details: up to 200 μM
T1 construct: the CDS of ShHTL7 and AtD14 were cloned into yeast expression vector pBrigde; expressed in transfected cells; host or cells: yeast AH109
Method: To construct plasmids for yeast two-hybrid assays, the CDS of ShHTL7 and AtD14 were cloned into yeast expression vector pBrigde to generate BD-ShHTL7 and BD-AtD14, and the CDS of ShMAX2, AtMAX2, SMAX1 were cloned into pGADT7 to make Gal4 DNA activation domain (AD) constructs, respectively. Primers used for yeast expression vector construction are listed in Supplementary Table 6. Yeast two-hybrid assays were performed using the Yeastmaker Yeast Transformation System 2 (Clontech). In brief, Yeast AH109 cells were co-transformed with specific bait and prey constructs and coated on selective growth medium SD/-Leu-Trp for 3 days at 30 °C, pick the positive constructs into liquid selective growth medium SD/-Leu-Trp shaking for 36 h at 30 °C. Washed yeast cells three times and diluted, made sure OD600 reached 2.5, then serial 10-fold dilutions of yeast cultures were spotted onto selective growth mediums that were supplemented with different concentrations of rac-GR24 and tested molecules, respectively. All yeast transformants were grown on a selective growth medium at 30 °C for 3 days.

ShHTL7S95A = assay: Hydrolysis reaction analysis with ShHTL7 S95A mutant; format: biochemical, Striga hermonthica; details: Supplementary Figs. 20a, 24a
Method: Compounds 4a, (R)- and (S)-4a, 4g-i, and rac-GR24 were dissolved in DMSO and prepared as stock solution ([…]) just before use. A 200 μL of the reaction solution consisting of PBS buffer (pH 7.3), 10 μM samples, and 10 μg recombinant ShHTL7 or its mutants was incubated at 30 °C for 30 min; with the reaction solution (200 μL) containing PBS buffer (pH 7.3) and 10 μM samples as the blank control[40],[52]. Subsequently, the reaction was terminated by adding 200 μL of methanol, and then the reaction mixture was shaken for 10 s and centrifuged at 5310 × g for 60 s. The supernatant was filtered and the remaining amount of samples was analyzed by HPLC. The relative percentages of hydrolysis were obtained by using the amount of compounds in blank control as reference.
Supplementary Fig. 20. Effect of key amino acid residues on the hydrolysis of ShHTL7 and binding affinity. a, Relative percentage of hydrolysis of compound (S)-4a by ShHTL7S95A, ShHTL7H246A, and ShHTL7. The error bar indicates SD (n = 3 biologically independent experiments). b, Competitive mutants of ShHTL7 inhibitory activity in YLG assay. Data are the means ± SD (n = 3 biologically independent experiments).
(1 picture or pasted object on this page, not shown here) […]

ShHTL7 T121S = ShHTL7 T121S (Striga hermonthica, UniProt A0A0M3PNA2, T121S); assay: YLG competitive inhibition, ShHTL7 mutant T121S; format: biochemical
Excerpt: (§1) To clarify the dynamics of how the catalytic triad affects hydrolysis by ShHTL7, we performed MD simulations to study the differences between (R)-4a and (S)-4a (Supplementary Fig. 21). […] To further characterize our computational models, we performed mutation studies of the key residues in the active pockets that may have interactions with our molecules. Indeed, a number of the mutations of specific residues altered the IC50 values, supporting our simulated models (Supplementary Fig. 20b).
(§2) The excitation and emission wavelengths of YLG are 480 and 520 nm, respectively. We used a fluorescence spectrophotometer (CARY Eclipse) to detect the fluorescence intensity change of YLG during the enzymatic hydrolysis assay process. All the testing compounds and YLG were dissolved in DMSO and prepared as stock solutions just before use. […] The changes of fluorescence at 520 nm of each well were recorded every 1 min for 30 min. Using the reaction mixture without adding enzyme and tested compounds as the background control. After subtracting the background hydrolysis, a linear fluorescence increase in 8 min was used for further inspection. The IC50 values were determined via fitting relative inhibition percentages with the varying concentrations of compounds in Microsoft Excel.
(§3) Supplementary Fig. 20. […]

ShHTL7 T124K = ShHTL7 T124K (Striga hermonthica, UniProt A0A0M3PNA2); assay: YLG competitive inhibition, ShHTL7 mutant T124K; format: biochemical; details: read-out: IC50 (YLG), ShHTL7 mutant, source data average, Supplementary Fig. 20b
Excerpt: as §1, §2, §3

ShHTL7 F134K = ShHTL7 F134K (Striga hermonthica, UniProt A0A0M3PNA2, F134K); assay: YLG competitive inhibition, ShHTL7 mutant F134K; format: biochemical
Excerpt: as §1, §2, §3

ShHTL7 T142L = ShHTL7 T142L (Striga hermonthica, UniProt A0A0M3PNA2, T142L); assay: YLG competitive inhibition, ShHTL7 mutant T142L; format: biochemical
Excerpt: as §1, §2, §3

ShHTL7 T157Y = ShHTL7 T157Y (Striga hermonthica, UniProt A0A0M3PNA2, T157Y); assay: YLG competitive inhibition, ShHTL7 mutant T157Y; format: biochemical
Excerpt: as §1, §2, §3

ShHTL7 M219A = ShHTL7 M219A (Striga hermonthica, UniProt A0A0M3PNA2, M219A); assay: YLG competitive inhibition, ShHTL7 mutant M219A; format: biochemical
Excerpt: as §1, §2, §3

Sequence of ShHTL7 T124K (A0A0M3PNA2 entry or part of it, stated change not applied): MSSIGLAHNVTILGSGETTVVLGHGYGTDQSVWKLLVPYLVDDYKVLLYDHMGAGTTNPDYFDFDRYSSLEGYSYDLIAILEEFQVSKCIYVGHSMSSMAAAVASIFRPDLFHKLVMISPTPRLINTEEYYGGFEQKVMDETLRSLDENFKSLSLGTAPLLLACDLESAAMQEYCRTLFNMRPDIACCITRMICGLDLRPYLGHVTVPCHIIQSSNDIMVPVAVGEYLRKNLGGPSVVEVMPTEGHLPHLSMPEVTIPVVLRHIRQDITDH
Sequence of ShHTL7 T142L (A0A0M3PNA2 whole entry T142L): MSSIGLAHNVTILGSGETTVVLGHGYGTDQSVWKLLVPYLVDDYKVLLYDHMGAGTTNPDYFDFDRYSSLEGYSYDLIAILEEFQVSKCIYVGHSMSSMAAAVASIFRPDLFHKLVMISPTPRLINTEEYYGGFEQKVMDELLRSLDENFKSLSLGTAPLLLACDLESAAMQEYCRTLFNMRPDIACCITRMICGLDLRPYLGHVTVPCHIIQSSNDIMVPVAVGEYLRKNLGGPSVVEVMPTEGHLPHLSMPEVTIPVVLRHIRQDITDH
Sequence of ShHTL7 F134K (A0A0M3PNA2 whole entry F134K): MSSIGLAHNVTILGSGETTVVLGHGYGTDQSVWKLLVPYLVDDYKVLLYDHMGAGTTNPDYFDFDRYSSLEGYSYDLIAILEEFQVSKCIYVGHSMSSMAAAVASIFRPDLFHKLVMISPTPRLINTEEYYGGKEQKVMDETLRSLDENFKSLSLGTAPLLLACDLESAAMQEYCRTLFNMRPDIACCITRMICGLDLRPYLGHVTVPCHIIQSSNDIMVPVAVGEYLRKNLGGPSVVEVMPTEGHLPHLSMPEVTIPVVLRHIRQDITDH
Sequence of ShHTL7 M219A (A0A0M3PNA2 whole entry M219A): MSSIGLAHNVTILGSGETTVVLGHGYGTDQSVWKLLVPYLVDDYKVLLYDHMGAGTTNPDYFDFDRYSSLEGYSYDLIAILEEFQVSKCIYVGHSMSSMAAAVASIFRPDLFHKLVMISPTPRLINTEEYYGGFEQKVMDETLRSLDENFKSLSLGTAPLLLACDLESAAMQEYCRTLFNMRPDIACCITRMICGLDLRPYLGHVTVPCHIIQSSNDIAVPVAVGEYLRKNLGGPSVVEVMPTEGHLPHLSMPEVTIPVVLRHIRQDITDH
Sequence of ShHTL7 T157Y (A0A0M3PNA2 whole entry T157Y): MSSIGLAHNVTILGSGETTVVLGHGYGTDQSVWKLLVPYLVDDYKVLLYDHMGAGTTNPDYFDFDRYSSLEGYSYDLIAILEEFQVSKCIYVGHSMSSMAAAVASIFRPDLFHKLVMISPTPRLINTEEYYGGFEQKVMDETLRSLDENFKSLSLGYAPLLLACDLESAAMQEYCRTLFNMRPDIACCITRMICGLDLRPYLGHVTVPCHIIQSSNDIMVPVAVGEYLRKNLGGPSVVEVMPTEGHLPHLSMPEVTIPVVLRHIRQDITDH
Sequence of ShHTL7 T121S (A0A0M3PNA2 whole entry T121S): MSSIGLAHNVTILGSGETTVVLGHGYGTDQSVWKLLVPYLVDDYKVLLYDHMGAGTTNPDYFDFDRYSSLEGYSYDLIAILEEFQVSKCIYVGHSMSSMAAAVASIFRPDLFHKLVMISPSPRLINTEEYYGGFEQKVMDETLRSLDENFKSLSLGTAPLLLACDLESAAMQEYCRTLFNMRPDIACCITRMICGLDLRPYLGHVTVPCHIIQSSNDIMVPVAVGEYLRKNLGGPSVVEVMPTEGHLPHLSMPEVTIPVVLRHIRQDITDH
T1 sequence (Q9SQR3 whole entry): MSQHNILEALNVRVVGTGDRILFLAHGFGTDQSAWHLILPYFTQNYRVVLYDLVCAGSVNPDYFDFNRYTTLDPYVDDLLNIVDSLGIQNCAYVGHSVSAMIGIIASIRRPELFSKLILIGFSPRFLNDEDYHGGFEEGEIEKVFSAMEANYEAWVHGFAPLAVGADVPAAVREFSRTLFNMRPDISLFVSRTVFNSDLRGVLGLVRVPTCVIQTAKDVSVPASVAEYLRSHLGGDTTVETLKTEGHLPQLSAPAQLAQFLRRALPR

Compound | induction of AtD14-AtMAX2 interaction (Y2H) (AtD14-AtMAX2 interaction) | relative percentage of hydrolysis by ShHTL7S95A, source data average (ShHTL7S95A) | IC50 (ShHTL7 T121S) | IC50 (ShHTL7 T124K) | IC50 (ShHTL7 F134K) | IC50 (ShHTL7 T142L) | IC50 (ShHTL7 T157Y) | IC50 (ShHTL7 M219A)
CC1=CC(OC(=O)N2CCN(C(=O)COc3ccc(Br)cc3C)CC2)OC1=O (stereo not drawn) [4a] | did not promote the interaction |  |  |  |  |  |  | 
CC1=CC(OC(=O)N2CCN(C(=O)COc3ccc(Br)cc3C)CC2)CC1=O (stereo not drawn) [4g] |  | 3.871% |  |  |  |  |  | 
CC1=C[C@@H](OC(=O)N2CCN(C(=O)COc3ccc(Br)cc3C)CC2)OC1=O [(R)-4a] |  |  | 4900 nM | 1000 nM | 62100 nM | 1880 nM | 23300 nM | > 100000 nM
CC1=C[C@H](OC(=O)N2CCN(C(=O)COc3ccc(Br)cc3C)CC2)OC1=O [(S)-4a] |  | 1.485% | 800 nM | 435 nM | 613 nM | 300 nM | 949 nM | 6530 nM
